Assay results taken from the NIST ThermoML archive (doi:10.1016/j.jct.2018.08.037).
Several values for one entry are separate records, joined by “and”; a condition that tells them apart may be missing. Equal entries are not always repeated. Numbers after ± are expanded uncertainties.

Test: mn = molality of the nth substance listed, in mol/kg
Conditions: 298.15 K, 100 kPa, Liquid, Buoyancy - hydrostatic balance

Structure (SMILES)	mass density (m1 = 1)	mass density (m1 = 2)	mass density (m1 = 1.05)	mass density (m1 = 1.62)	mass density (m1 = 2.21)	mass density (m1 = 2.22)	mass density (m1 = 2.84)	mass density (m1 = 2.86)	mass density (m1 = 3.51)	mass density (m1 = 6.68)
[Na+].[OH-] [sodium hydroxide] + O	1043 ± 14 kg/m3 and 1041 ± 14 kg/m3	1081 ± 14 kg/m3	–	–	–	–	–	–	–	–
[Na+].[O-][Cl+3]([O-])([O-])[O-] [sodium perchlorate] + O	–	–	1076 ± 14 kg/m3 and 1072 ± 15 kg/m3	1110 ± 14 kg/m3	1148 ± 14 kg/m3	1145 ± 14 kg/m3	1185 ± 16 kg/m3	1180 ± 16 kg/m3	1223 ± 14 kg/m3	1360 ± 14 kg/m3
